For one assay, the target named is T1, human A2A receptors (Homo sapiens, UniProt P29274).
T1 construct: expressed in transfected cells; host or cells: HEK293
Nature of the assay: Inhibition of human A2A receptor in recombinant HEK293 cells, cAMP quantification (HTRF). Format: cell-based. To be noted: read-out: A2A (Category). How it is done:
(§1) The functional activities of human A2A and A2B receptors were determined by quantification of cAMP, being the second messenger for adenosine receptors.
(§2) After a 15 min incubation, HTRF reagents (cAMP dynamic 2, Cis Bio) were added and the cellular cAMP levels were determined using the ENVISION (Perkin Elmer) plate reader.
In general terms: In TR-FRET formats the signal depends on donor and acceptor labels being close together.

Another assay concerns the target T2, human A2B receptors (Homo sapiens, UniProt P29275).
T2 construct: expressed in transfected cells; host or cells: HEK293
T2 sequence (P29275 1-332): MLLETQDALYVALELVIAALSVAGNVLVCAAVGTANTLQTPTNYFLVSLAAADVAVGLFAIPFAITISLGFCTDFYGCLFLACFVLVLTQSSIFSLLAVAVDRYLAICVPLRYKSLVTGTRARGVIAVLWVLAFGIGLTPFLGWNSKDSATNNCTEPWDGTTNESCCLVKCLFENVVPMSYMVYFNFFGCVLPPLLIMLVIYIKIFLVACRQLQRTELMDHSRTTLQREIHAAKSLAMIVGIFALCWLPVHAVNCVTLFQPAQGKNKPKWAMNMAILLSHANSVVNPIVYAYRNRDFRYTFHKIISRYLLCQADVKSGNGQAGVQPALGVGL
The experiment in a line: Inhibition of human A2B receptor in recombinant HEK293 cells, cAMP quantification (HTRF). To be noted: read-out: A2B (Category). Format: cell-based. How it is done: as §1, §2

pIC50: −log10 of the molar value. Bounds are passed on as bounds.

T1 sequence (P29274 whole entry): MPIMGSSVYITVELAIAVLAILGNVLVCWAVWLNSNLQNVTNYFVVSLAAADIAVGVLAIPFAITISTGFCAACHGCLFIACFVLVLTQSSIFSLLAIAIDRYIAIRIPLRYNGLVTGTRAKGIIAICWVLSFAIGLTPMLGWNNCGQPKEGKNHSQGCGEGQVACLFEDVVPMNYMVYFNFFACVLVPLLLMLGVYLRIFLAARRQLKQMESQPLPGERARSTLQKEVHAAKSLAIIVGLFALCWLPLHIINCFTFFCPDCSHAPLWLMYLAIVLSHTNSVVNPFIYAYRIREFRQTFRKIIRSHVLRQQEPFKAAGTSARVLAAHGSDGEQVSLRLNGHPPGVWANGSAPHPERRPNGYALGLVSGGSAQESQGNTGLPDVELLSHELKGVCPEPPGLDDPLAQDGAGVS

Consider `CC1(O)CCN(C(=O)c2cc3c(cn2)c(Nc2ccc(F)cc2)nn3CC(F)(F)F)CC1` [Compound 34, [3-(4-fluoroanilino)-1-(2,2,2-trifluoroethyl)pyrazolo[4,3-c]pyridin-6-yl]-(4-hydroxy-4-methyl-1-piperidyl)methanone], for which the pIC50 is above 7.00 at human A2A receptors and above 6.00 at human A2B receptors.

For the molecule `O=C(c1cc2c(cn1)c(Nc1cnccn1)nn2CC(F)(F)F)N1CCC(F)CC1` [Compound 124, [3-(pyrazin-2ylamino)-1-(2,2,2-trifluoro-ethyl)-1H-pyrazolo[4,3-c]pyridin-6-yl]-(4-fluoro-piperidin-1-yl)-methanone], the pIC50 is above 7.00 at human A2A receptors and above 6.00 at human A2B receptors.

For `O=C(c1cc2c(cn1)c(Nc1ccc(Cl)c(F)c1)nn2CC(F)(F)F)N1CCCOCC1` [Compound 19, [3-(4-chloro-3-fluoroanilino)-1-(2,2,2-trifluoroethyl)pyrazolo[4,3-c]pyridin-6-yl]-(1,4-oxazepan-4-yl)methanone], the pIC50 at human A2A receptors and at human A2B receptors was above 7.00 throughout.

`CC1(O)CCN(C(=O)c2cc3c(cn2)c(Nc2cccc(F)c2)nn3CC(F)(F)F)CC1` [Compound 35, [3-(3-fluoroanilino)-1-(2,2,2-trifluoroethyl)pyrazolo[4,3-c]pyridin-6-yl]-(4-hydroxy-4-methyl-1-piperidyl)methanone]: the pIC50 on human A2A receptors was above 7.00; at human A2B receptors, above 6.00.

Take `CC(C)(O)C[C@H]1CCCN1C(=O)c1cc2c(cn1)c(Nc1ccc(F)cn1)nn2CC(F)(F)F` [Compound 125, [3-[(5-fluoro-2-pyridyl)amino]-1-(2,2,2-trifluoroethyl)pyrazolo[4,3-c]pyridin-6-yl]-[(2R)-2-(2-hydroxy-2-methyl-propyl)pyrrolidin-1-yl]methanone]: the pIC50 at human A2A receptors was above 7.00; on human A2B receptors it was above 6.00.

For `O=C(c1cc2c(cn1)c(Nc1cccc(F)c1)nn2CC(F)(F)F)N1CCOCC(O)C1` (stereo not shown) [Compound 32, [3-(3-fluoroanilino)-1-(2,2,2-trifluoroethyl)pyrazolo[4,3-c]pyridin-6-yl]-(6-hydroxy-1,4-oxazepan-4-yl)methanone], the pIC50 on human A2A receptors is above 7.00; at human A2B receptors, above 6.00.

For the molecule `O=C(c1cc2c(cn1)c(Nc1ccccn1)nn2CC(F)(F)F)N1CCOCC(O)C1` (stereo not shown) [Compound 52, (6-hydroxy-1,4-oxazepan-4-yl)-[3-(2-pyridylamino)-1-(2,2,2-trifluoroethyl)pyrazolo[4,3-c]pyridin-6-yl]methanone], the pIC50 on human A2A receptors and at human A2B receptors was above 7.00 in each case.

`O=C(c1cc2c(cn1)c(Nc1ccc(F)cn1)nn2CC(F)(F)F)N1CCC[C@@H](F)C1` [Compound 99, [(3R)-3-fluoro-piperidin-1-yl]-[3-(5-Fluoro-pyridin-2-ylamino)-1-(2,2,2-trifluoro-ethyl)-1H-pyrazolo[4,3-c]pyridin-6-yl]methanone]: the pIC50 is above 7.00 on human A2A receptors and above 6.00 at human A2B receptors.

As for `O=C(c1cc2c(cn1)c(Nc1ccc(F)cn1)nn2CC(F)(F)F)N1CCC(F)CC1` [Compound 96, (4-Fluoro-piperidin-1-yl)-[3-(5-fluoro-pyridin-2-ylamino)-1-(2,2,2-trifluoro-ethyl)-1H-pyrazolo[4,3-c]pyridin-6-yl]-methanone], the pIC50 at human A2A receptors was above 7.00; at human A2B receptors, above 6.00.

As for `[2H]C1([2H])COCCN(C(=O)c2cc3c(cn2)c(Nc2ccc(F)cn2)nn3CC(F)(F)F)C1` [Compound 91, (6,6-dideuterio-1,4-oxazepan-4-yl)-[3-[(5-fluoro-2-pyridyl)amino]-1-(2,2,2-trifluoroethyl)pyrazolo[4,3-c]pyridin-6-yl]methanone], the pIC50 on human A2A receptors and on human A2B receptors was above 7.00 throughout.

Consider `COc1ccc(Nc2nn(CC(F)(F)F)c3cc(C(=O)N4CCCOCC4)ncc23)cc1` [Compound 11, [3-(4-methoxyanilino)-1-(2,2,2-trifluoroethyl)pyrazolo[4,3-c]pyridin-6-yl]-(1,4-oxazepan-4-yl)methanone], for which the pIC50 at human A2A receptors is above 7.00; on human A2B receptors, above 6.00.

As to `O=C(c1cc2c(cn1)c(Nc1ccccn1)nn2CC(F)(F)F)N1CCC(O)CC1` [Compound 24, (4-hydroxy-1-piperidyl)-[3-(2-pyridylamino)-1-(2,2,2-trifluoroethyl)pyrazolo[4,3-c]pyridin-6-yl]methanone], the pIC50 at human A2A receptors and at human A2B receptors was above 7.00 in each case.

With `O=C(c1cc2c(cn1)c(Nc1ccc(F)cc1)nn2CC(F)(F)F)N1[C@@H]2CC[C@H]1C[C@@H](O)C2` [Compound 26, [3-(4-fluoroanilino)-1-(2,2,2-trifluoroethyl)pyrazolo[4,3-c]pyridin-6-yl]-(3-endo-hydroxy-8-azabicyclo[3.2.1]octan-8-yl)methanone], the values for the pIC50 at human A2A receptors and on human A2B receptors were above 7.00 and above 6.00, respectively.

Consider `O=C(c1cc2c(cn1)c(Nc1cccc(Cl)c1)nn2CC(F)(F)F)N1CCCOCC1` [Compound 37, [3-(3-chloroanilino)-1-(2,2,2-trifluoroethyl)pyrazolo[4,3-c]pyridin-6-yl]-(1,4-oxazepan-4-yl)methanone], for which the figures for the pIC50 on human A2A receptors and at human A2B receptors were above 7.00 and above 6.00, respectively.

Regarding `O=C(c1cc2c(cn1)c(Nc1cc(F)ccn1)nn2CC(F)(F)F)N1CCOC[C@@H](F)C1` [Compound 110, [(6S)-6-fluoro-1,4-oxazepan-4-yl]-[3-(4-fluoro-pyridin-2-ylamino)-1-(2,2,2-trifluoro-ethyl)-1H-pyrazolo[4,3-c]pyridin-6-yl]-methanone], the pIC50 on human A2A receptors and at human A2B receptors was above 7.00 in each case.

As for `O=C(c1cc2c(cn1)c(Nc1cccc(F)n1)nn2CC(F)(F)F)N1CCCOCC1` [Compound 49, [3-[(6-fluoro-2-pyridyl)amino]-1-(2,2,2-trifluoroethyl)pyrazolo[4,3-c]pyridin-6-yl]-(1,4-oxazepan-4-yl)methanone], the pIC50 on human A2A receptors and at human A2B receptors was above 7.00 in each case.

With `O=C(c1cc2c(cn1)c(Nc1cccc(Cl)n1)nn2CC(F)(F)F)N1CCCOCC1` [Compound 51, [3-[(6-chloro-2-pyridyl)amino]-1-(2,2,2-trifluoroethyl)pyrazolo[4,3-c]pyridin-6-yl]-(1,4-oxazepan-4-yl)methanone], the figures for the pIC50 at human A2A receptors and on human A2B receptors were above 7.00 and above 6.00, respectively.

For the molecule `CS(=O)(=O)Cn1nc(Nc2ccccc2)c2cnc(C(=O)N3[C@@H]4CC[C@H]3C[C@@H](O)C4)cc21` [Compound 29, [3-anilino-1-(methylsulfonylmethyl)pyrazolo[4,3-c]pyridin-6-yl]-(3-endo-hydroxy-8-azabicyclo[3.2.1]octan-8-yl)methanone], the pIC50 on human A2A receptors and at human A2B receptors was above 7.00 throughout.

As for `O=C(c1cc2c(cn1)c(Nc1ccc(F)c(Cl)c1)nn2CC(F)(F)F)N1CCCOCC1` [Compound 18, [3-(3-chloro-4-fluoroanilino)-1-(2,2,2-trifluoroethyl)pyrazolo[4,3-c]pyridin-6-yl]-(1,4-oxazepan-4-yl)methanone], the pIC50 on human A2A receptors is above 7.00; on human A2B receptors, above 6.00.

For `O=C(c1cc2c(cn1)c(Nc1ccccc1F)nn2CC(F)(F)F)N1CCCOCC1` [Compound 1, [3-(2-fluoroanilino)-1-(2,2,2-trifluoroethyl)pyrazolo[4,3-c]pyridin-6-yl]-(1,4-oxazepan-4-yl)methanone], the pIC50 at human A2A receptors is above 7.00; on human A2B receptors, above 6.00.

For the molecule `O=C(c1cc2c(cn1)c(Nc1cc(F)ccn1)nn2CC(F)(F)F)N1CCC(O)(C2CC2)CC1` [Compound 115, [3-(4-Fluoro-pyridin-2-ylamino)-1-(2,2,2-trifluoro-ethyl)-1H-pyrazolo[4,3-c]pyridin-6-yl]-(4-cyclopropyl-4-hydroxypiperidin-1-yl)-methanone], the pIC50 at human A2A receptors and on human A2B receptors was above 7.00 each time.

For `O=C(c1cc2c(cn1)c(Nc1ccc(F)cn1)nn2CC(F)(F)F)N1CCCOCC1` [Compound 44, [3-[(5-fluoro-2-pyridyl)amino]-1-(2,2,2-trifluoroethyl)pyrazolo[4,3-c]pyridin-6-yl]-(1,4-oxazepan-4-yl)methanone], the pIC50 on human A2A receptors and at human A2B receptors was above 7.00 throughout.

For `CS(=O)(=O)Cn1nc(Nc2cccc(F)c2)c2cnc(C(=O)N3CCCOCC3)cc21` [Compound 28, [3-(3-fluoroanilino)-1-(methylsulfonylmethyl)pyrazolo[4,3-c]pyridin-6-yl]-(1,4-oxazepan-4-yl)methanone], the pIC50 on human A2A receptors and at human A2B receptors was above 7.00 throughout.

On to `O=C(c1cc2c(cn1)c(Nc1ccc(F)cn1)nn2CC(F)(F)F)N1CCC(O)CC1` [Compound 94, [3-[(5-fluoro-2-pyridyl)amino]-1-(2,2,2-trifluoroethyl)pyrazolo[4,3-c]pyridin-6-yl]-(4-hydroxypiperidin-1-yl)methanone], for which the pIC50 on human A2A receptors and on human A2B receptors was above 7.00 throughout.

On to `O=C(c1cc2c(cn1)c(Nc1cccc(F)c1)nn2CC(F)(F)F)N1CCCOCC1` [Compound 6, [3-(3-fluoroanilino)-1-(2,2,2-trifluoroethyl)pyrazolo[4,3-c]pyridin-6-yl]-(1,4-oxazepan-4-yl)methanone], for which the pIC50 at human A2A receptors and at human A2B receptors was above 7.00 throughout.

As to `CC1(O)CCN(C(=O)c2cc3c(cn2)c(Nc2ccccn2)nn3CC(F)(F)F)CC1` [Compound 53, (4-hydroxy-4-methyl-1-piperidyl)-[3-(2-pyridylamino)-1-(2,2,2-trifluoroethyl)pyrazolo[4,3-c]pyridin-6-yl]methanone], the pIC50 at human A2A receptors and at human A2B receptors was above 7.00 throughout.

For the origin of these results see US12194051B2, “5-azaindazole derivatives as adenosine receptor antagonists” (MERCK PATENT GMBH, priority 2018, dated 2025).
